Experimental data published in patent US20140228366A1, “HETEROARYL-SUBSTITUTED PYRAZOLOPYRIDINES AND USE THEREOF AS SOLUBLE GUANYLATE CYCLASE STIMULATORS” (BAYER INTELLECTUAL PROPERTY GMBH, priority 2011, published 2014).

Experiments:
[1] = tested on: rabbit aorta rings; experiment: Vasorelaxant effect in vitro (phenylephrine-contracted aorta rings); conditions: Oryctolagus cuniculus, phenylephrine contraction, concentration reducing control contraction by 50%
Description: Rabbits are stunned by a blow to the neck and exsanguinated. The aorta is removed, freed from adhering tissue and divided into rings of a width of 1.5 mm. The rings are placed individually under an initial tension in 5 ml organ baths with Krebs-Henseleit solution which is at 37° C., is gassed with carbogen and has the following composition (in each case mM): sodium chloride: 119; potassium chloride: 4.8; calcium chloride dihydrate: 1; magnesium sulphate heptahydrate: 1.4; potassium dihydrogenphosphate: 1.2; sodium bicarbonate: 25; glucose: 10. The contractile force is determined with Statham UC2 cells, amplified and digitalized using A/D transducers (DAS-1802 HC, Keithley Instruments Munich), and recorded in parallel on linear recorders. To produce a contraction, phenylephrine is added to the bath cumulatively in increasing concentration. After several control cycles, the substance to be investigated is added in each further run in increasing dosage in each case, and the height of the contraction achieved is compared with the height of the contraction reached in the last preceding run. This is used to calculate the concentration needed to reduce the magnitude of the control value by 50% (IC50 value). The standard administration volume is 5 μl; the DMSO content in the bath solution corresponds to 0.1%.

[2] = biological target: T1, recombinant guanylate cyclase reporter cell line (Rattus norvegicus, UniProt P19686+P20595); experiment: Effect on a recombinant guanylate cyclase reporter cell line; assay type: cell-based
T1 construct: expressed in transfected cells; host or cells: recombinant reporter cell line
T1 sequence (P19686 1-690): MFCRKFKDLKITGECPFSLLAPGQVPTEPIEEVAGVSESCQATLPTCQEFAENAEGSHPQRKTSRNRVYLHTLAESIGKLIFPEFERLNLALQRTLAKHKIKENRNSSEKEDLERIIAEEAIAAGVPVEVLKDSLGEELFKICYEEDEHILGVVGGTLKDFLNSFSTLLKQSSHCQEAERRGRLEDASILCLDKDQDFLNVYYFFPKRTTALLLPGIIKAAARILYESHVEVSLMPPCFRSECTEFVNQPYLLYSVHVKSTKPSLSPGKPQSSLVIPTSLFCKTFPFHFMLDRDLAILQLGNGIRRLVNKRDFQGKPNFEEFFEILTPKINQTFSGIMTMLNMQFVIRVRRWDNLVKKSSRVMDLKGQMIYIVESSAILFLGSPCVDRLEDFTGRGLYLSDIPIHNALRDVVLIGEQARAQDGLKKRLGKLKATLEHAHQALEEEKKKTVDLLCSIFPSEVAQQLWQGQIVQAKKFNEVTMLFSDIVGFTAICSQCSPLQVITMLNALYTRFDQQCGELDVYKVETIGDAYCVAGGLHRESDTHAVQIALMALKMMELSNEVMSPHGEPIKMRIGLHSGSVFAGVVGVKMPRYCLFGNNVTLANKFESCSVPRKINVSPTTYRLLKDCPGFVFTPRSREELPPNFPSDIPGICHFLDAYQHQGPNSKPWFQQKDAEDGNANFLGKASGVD
T1 sequence (P20595 1-619): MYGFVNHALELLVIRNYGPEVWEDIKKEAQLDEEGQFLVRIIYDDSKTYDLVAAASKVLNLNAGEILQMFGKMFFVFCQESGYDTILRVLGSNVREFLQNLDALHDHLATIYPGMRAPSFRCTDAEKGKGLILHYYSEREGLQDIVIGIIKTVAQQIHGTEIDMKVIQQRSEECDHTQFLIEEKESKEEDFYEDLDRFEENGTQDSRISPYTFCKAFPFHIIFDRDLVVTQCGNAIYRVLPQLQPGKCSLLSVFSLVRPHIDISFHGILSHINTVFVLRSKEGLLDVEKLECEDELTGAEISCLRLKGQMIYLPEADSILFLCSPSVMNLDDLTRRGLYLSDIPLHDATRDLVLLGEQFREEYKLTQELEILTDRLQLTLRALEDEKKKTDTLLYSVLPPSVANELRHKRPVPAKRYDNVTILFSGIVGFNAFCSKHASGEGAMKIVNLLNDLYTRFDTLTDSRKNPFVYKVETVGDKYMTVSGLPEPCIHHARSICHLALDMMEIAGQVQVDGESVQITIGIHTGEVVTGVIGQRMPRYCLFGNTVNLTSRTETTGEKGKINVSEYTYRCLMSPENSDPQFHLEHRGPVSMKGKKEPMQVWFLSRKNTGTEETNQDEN
Description: The cellular activity of the compounds according to the invention is determined using a recombinant guanylate cyclase reporter cell line, as described in F. Wunder et al., Anal. Biochem. 339, 104-112 (2005).

| SMILES | IC50 [1] [nM] | MEC (minimum effective concentration) [2] [µM] |
| --- | --- | --- |
| CC1(C)C(=O)Nc2nc(-c3nn(Cc4ncccc4F)c4ncc(F)cc34)nc(O)c21 [Example 5, 2-{5-Fluoro-1-[(3-fluoropyridin-2-yl)methyl]-1H-pyrazolo[3,4-b]pyridin-3-yl}-4-hydroxy-5,5-dimethyl-5,7-dihydro-6H-pyrrolo[2,3-d]pyrimidin-6-one] | 627 | 3 |
| CC1(C)C(=O)Nc2nc(-c3nn(Cc4c(F)cncc4F)c4ncc(F)cc34)nc(N)c21 [Example 7, 4-Amino-2-{1-[(3,5-difluoropyridin-4-yl)methyl]-5-fluoro-1H-pyrazolo[3,4-b]pyridin-3-yl}-5,5-dimethyl-5,7-dihydro-6H-pyrrolo[2,3-d]pyrimidin-6-one] | 116 | 0.3 |
| CC1(C)C(=O)Nc2nc(-c3nn(Cc4c(F)cncc4F)c4ncc(F)cc34)nnc21 [Example 11, 3-{1-[(3,5-Difluoropyridin-4-yl)methyl]-5-fluoro-1H-pyrazolo[3,4-b]pyridin-3-yl}-7,7-dimethyl-5,7-dihydro-6H-pyrrolo[2,3-e][1,2,4]triazin-6-one] | 2540 | 3.0 |
| CC1(C)C(=O)Nc2nc(-c3nn(Cc4c(F)cncc4F)c4ncc(F)cc34)ncc21 [Example 10, 2-[1-[(3,5-Difluoropyridin-4-yl)methyl]-5-fluoro-1H-pyrazolo[3,4-b]pyridin-3-yl]-5,5-dimethyl-5,7-dihydro-6H-pyrrolo[2,3-d]pyrimidin-6-one] | 259 | 1.0 |
| CC1(C)C(=O)Nc2nc(-c3nn(Cc4ccncc4F)c4ncc(F)cc34)nnc21 [Example 15, 3-{5-Fluoro-1-[(3-fluoropyridin-4-yl)methyl]-1H-pyrazolo[3,4-b]pyridin-3-yl}-7,7-dimethyl-5,7-dihydro-6H-pyrrolo[2,3-e][1,2,4]triazin-6-one] | 2230 | 3.0 |
| CC1(C)C(=O)Nc2nc(-c3nn(Cc4ncccn4)c4ncc(F)cc34)nnc21 [Example 1, 3-[5-Fluoro-1-(pyrimidin-2-ylmethyl)-1H-pyrazolo[3,4-b]pyridin-3-yl]-7,7-dimethyl-5,7-dihydro-6H-pyrrolo[2,3-e][1,2,4]triazin-6-one] | 1320 | 10 |
| CC1(C)C(=O)Nc2nc(-c3nn(Cc4ccncc4F)c4ncc(F)cc34)nc(N)c21 [Example 12, 4-Amino-2-[5-fluoro-1-[(3-fluoropyridin-4-yl)methyl]-1H-pyrazolo[3,4-b]pyridin-3-yl]-5,5-dimethyl-5,7-dihydro-6H-pyrrolo[2,3-d]pyrimidin-6-one] | 121 | 1.0 |
| CC1(C)C(=O)Nc2nc(-c3nn(Cc4ncccc4F)c4ncc(F)cc34)nc(I)c21 [Example 4, 2-{5-Fluoro-1-[(3-fluoropyridin-2-yl)methyl]-1H-pyrazolo[3,4-b]pyridin-3-yl}-4-iodo-5,5-dimethyl-5,7-dihydro-6H-pyrrolo[2,3-d]pyrimidin-6-one] |  | 0.3 |
| CC1(C)C(=O)Nc2nc(-c3nn(Cc4c(F)cncc4F)c4ncc(F)cc34)nc(O)c21 [Example 9, 2-{1-[(3,5-Difluoropyridin-4-yl)methyl]-5-fluoro-1H-pyrazolo[3,4-b]pyridin-3-yl}-4-hydroxy-5,5-dimethyl-5,7-dihydro-6H-pyrrolo[2,3-d]pyrimidin-6-one] |  | 3.0 |
| CC1(C)C(=O)Nc2nc(-c3nn(Cc4ncc(F)cc4F)c4ncc(F)cc34)nnc21 [Example 16, 3-{1-[(3,5-Difluoropyridin-2-yl)methyl]-5-fluoro-1H-pyrazolo[3,4-b]pyridin-3-yl}-7,7-dimethyl-5,7-dihydro-6H-pyrrolo[2,3-e][1,2,4]triazin-6-one] |  | 1.0 |
| CC1(C)C(=O)Nc2nc(-c3nn(Cc4cncnc4)c4ncc(F)cc34)nc(N)c21 [Example 21, 4-Amino-2-[5-fluoro-1-(pyrimidin-5-ylmethyl)-1H-pyrazolo[3,4-b]pyridin-3-yl]-5,5-dimethyl-5,7-dihydro-6H-pyrrolo[2,3-d]pyrimidin-6-one] | 99 | 0.1 |
| CC1(C)C(=O)Nc2nc(-c3nn(Cc4sccc4F)c4ncc(F)cc34)nnc21 [Example 20, 3-{5-Fluoro-1-[(3-fluoro-2-thienyl)methyl]-1H-pyrazolo[3,4-b]pyridin-3-yl}-7,7-dimethyl-5,7-dihydro-6H-pyrrolo[2,3-e][1,2,4]triazin-6-one] |  | 0.01 |
| CC1(C)C(=O)Nc2nc(-c3nn(Cc4ccncc4F)c4ncc(F)cc34)ncc21 [Example 14, 2-{5-Fluoro-1-[(3-fluoropyridin-4-yl)methyl]-1H-pyrazolo[3,4-b]pyridin-3-yl}-5,5-dimethyl-5,7-dihydro-6H-pyrrolo[2,3-d]pyrimidin-6-one] | 207 | 1.0 |
| CC1(C)C(=O)Nc2nc(-c3nn(Cc4cncnc4)c4ncc(F)cc34)ncc21 [Example 18, 2-[5-Fluoro-1-(pyrimidin-5-ylmethyl)-1H-pyrazolo[3,4-b]pyridin-3-yl]-5,5-dimethyl-5,7-dihydro-6H-pyrrolo[2,3-d]pyrimidin-6-one] | 196 | 0.1 |
| CC1(C)C(=O)Nc2nc(-c3nn(Cc4cncnc4)c4ncc(F)cc34)nnc21 [Example 19, 3-[5-Fluoro-1-(pyrimidin-5-ylmethyl)-1H-pyrazolo[3,4-b]pyridin-3-yl]-7,7-dimethyl-5,7-dihydro-6H-pyrrolo[2,3-e][1,2,4]triazin-6-one] | 361 | 0.1 |
